Test system: patients with advanced solid tumors
Experiment: phase I dose escalation: safety, DLT, MTD, RP2D (CTCAE v. 5)
Assay type: in vivo
Excerpt: Subsequent dosing cohorts were enrolled using a standard 3 + 3 design.
If any patient in any cohort of three patients developed a DLT during cycle 1, an additional three patients were recruited to expand the cohort to up to six evaluable patients. If two or more patients in any expanded cohort developed a DLT, this dose was considered non-tolerated, and dose escalation was discontinued. The MTD was defined as the highest dose level for which no more than one of six patients experienced a DLT.
Patients were continuously evaluated for adverse events throughout the study using the Common Terminology Criteria of Adverse Events (CTCAE v. 5). The patients underwent a clinical history and physical examination, an ECOG PS, a complete blood count (CBCs), chemistry, coagulation studies, urinalysis, a serum pregnancy test (as applicable), a triplicate ECG, an ophthalmology examination, and baseline tumor assessment at screening. During cycle 1, weekly history and physical examination, CBC, chemistry, coagulation parameters, urinalysis, and triplicate ECGs were performed; in subsequent cycles, weekly labs were limited to a CBC. Repeat ophthalmology examinations were performed at cycle 3, day 1, and at the end of treatment. Repeat tumor assessment was performed every 2 cycles (6 weeks) in accordance with RECIST 1.1.

[1] = All 4:3 Patients (n = 20), All Grades
[2] = All Continuous Patients (N=8), All grades
[3] = All Continuous Patients (N=8), G1
[4] = All Continuous Patients (N=8), G2
[5] = All Continuous Patients (N=8), G3

## CC(C)[C@H](N)C(=O)SCC/C=C/[C@@H]1CC(=O)NCc2nc(cs2)C(=O)NC(C)(C)C(=O)N[C@@H](C(C)C)C(=O)O1 [OKI-179, Bocodepsin]
5:2, 300 mg (N=6), G2
  TEAE: Platelet count decreased: 0 N (%)
  TEAE: Pneumonitis: 1 (17) N (%)
  TEAE: Pneumothorax: 0 N (%)
  TEAE: Vomiting: 1 (17) N (%)
5:2, 300 mg (N=6), G3
  TEAE: Abdominal pain: 0 N (%)
  TEAE: Anemia: 1 (17) N (%)
  TEAE: Aspartate aminotransferase increased: 0 N (%)
  TEAE: Back pain: 1 (17) N (%)
  TEAE: Bile duct stenosis: 1 (17) N (%)
  TEAE: Blood alkaline phosphatase increased: 0 N (%)
  TEAE: Decreased appetite: 1 (17) N (%)
  TEAE: Dehydration: 0 N (%)
  TEAE: Dysphagia: 0 N (%)
  TEAE: ECG QT prolonged: 0 N (%)
  TEAE: Enterococcal bacteremia: 1 (17) N (%)
  TEAE: Esophagitis: 0 N (%)
  TEAE: Esophagoscopy: 0 N (%)
  TEAE: Eye pain: 0 N (%)
  TEAE: Fatigue: 0 N (%)
  TEAE: Gastritis: 0 N (%)
  TEAE: Hypomagnesaemia: 0 N (%)
  TEAE: Myalgia: 0 N (%)
  TEAE: Nausea: 1 (17) N (%)
  TEAE: Neutrophil count decreased: 0 N (%)
  TEAE: Oropharyngeal pain: 0 N (%)
  TEAE: Pain in extremity: 0 N (%)
  TEAE: Paresthesia: 0 N (%)
  TEAE: Platelet count decreased: 0 N (%)
  TEAE: Pneumonitis: 0 N (%)
  TEAE: Pneumothorax: 1 (17) N (%)
  TEAE: Vomiting: 0 N (%)
5:2 cohort, 300 mg
  TEAE: Fatigue: 67%
  TEAE: Nausea: 83%
  TEAE: Vomiting: 50%
  TEAE: decreased platelet count: 67%
[1]
  TEAE: Anemia: 8 (40) n (%)
  TEAE: Back pain: 4 (20) n (%)
  TEAE: Cough: 4 (20) n (%)
  TEAE: Decreased appetite: 7 (35) n (%)
  TEAE: Diarrhea: 5 (25) n (%)
  TEAE: Dyspnea: 3 (15) n (%)
  TEAE: ECG QT prolonged: 4 (20) n (%)
  TEAE: Fatigue: 8 (40) n (%)
  TEAE: Headache: 3 (15) n (%)
  TEAE: Hypokalaemia: 3 (15) n (%)
  TEAE: Muscular weakness: 4 (20) n (%)
  TEAE: Nasal congestion: 3 (15) n (%)
  TEAE: Platelet count decreased: 6 (30) n (%)
  TEAE: Proteinuria: 3 (15) n (%)
  TEAE: Pyrexia: 4 (20) n (%)
  TEAE: Vomiting: 6 (30) n (%)
  TEAE: Weight decreased: 3 (15) n (%)
All 4:3 Patients (n = 20), G1
  TEAE: Anemia: 1 (5) n (%)
  TEAE: Back pain: 3 (15) n (%)
  TEAE: Cough: 3 (15) n (%)
  TEAE: Decreased appetite: 4 (20) n (%)
  TEAE: Diarrhea: 5 (25) n (%)
  TEAE: Dyspnea: 3 (15) n (%)
  TEAE: ECG QT prolonged: 1 (5) n (%)
  TEAE: Fatigue: 3 (15) n (%)
  TEAE: Headache: 3 (15) n (%)
  TEAE: Hypokalaemia: 1 (5) n (%)
  TEAE: Muscular weakness: 1 (5) n (%)
  TEAE: Nasal congestion: 3 (15) n (%)
  TEAE: Nausea: 9 (45) n (%)
  TEAE: Platelet count decreased: 4 (20) n (%)
  TEAE: Proteinuria: 0 n (%)
  TEAE: Pyrexia: 3 (15) n (%)
  TEAE: Vomiting: 5 (25) n (%)
  TEAE: Weight decreased: 2 (10) n (%)
All 4:3 Patients (n = 20), G2
  TEAE: Anemia: 2 (10) n (%)
  TEAE: Back pain: 0 n (%)
  TEAE: Cough: 1 (5) n (%)
  TEAE: Decreased appetite: 3 (15) n (%)
  TEAE: Diarrhea: 0 n (%)
  TEAE: Dyspnea: 0 n (%)
  TEAE: ECG QT prolonged: 0 n (%)
  TEAE: Fatigue: 2 (10) n (%)
  TEAE: Headache: 0 n (%)
  TEAE: Hypokalaemia: 2 (10) n (%)
  TEAE: Muscular weakness: 2 (10) n (%)
  TEAE: Nasal congestion: 0 n (%)
  TEAE: Nausea: 4 (20) n (%)
  TEAE: Platelet count decreased: 2 (10) n (%)
  TEAE: Proteinuria: 3 (15) n (%)
  TEAE: Pyrexia: 0 n (%)
  TEAE: Vomiting: 1 (5) n (%)
  TEAE: Weight decreased: 1 (5) n (%)
All 4:3 Patients (n = 20), G3
  TEAE: Anemia: 5 (25) n (%)
  TEAE: Back pain: 1 (5) n (%)
  TEAE: Cough: 0 n (%)
  TEAE: Decreased appetite: 0 n (%)
  TEAE: Diarrhea: 0 n (%)
  TEAE: Dyspnea: 0 n (%)
  TEAE: ECG QT prolonged: 3 (15) n (%)
  TEAE: Fatigue: 3 (15) n (%)
  TEAE: Headache: 0 n (%)
  TEAE: Hypokalaemia: 0 n (%)
  TEAE: Muscular weakness: 1 (5) n (%)
  TEAE: Nasal congestion: 0 n (%)
  TEAE: Nausea: 0 n (%)
  TEAE: Platelet count decreased: 0 n (%)
  TEAE: Proteinuria: 0 n (%)
  TEAE: Pyrexia: 1 (5) n (%)
  TEAE: Vomiting: 0 n (%)
  TEAE: Weight decreased: 0 n (%)
[2]
  TEAE: Abdominal pain: 2 (25) N (%)
  TEAE: Anemia: 2 (25) N (%)
  TEAE: Constipation: 6 (75) N (%)
  TEAE: Decreased appetite: 2 (25) N (%)
  TEAE: Diarrhea: 3 (38) N (%)
  TEAE: Dyspepsia: 2 (25) N (%)
  TEAE: ECG QT prolonged: 2 (25) N (%)
  TEAE: Fatigue: 4 (50) N (%)
  TEAE: Headache: 3 (38) N (%)
  TEAE: Nausea: 6 (75) N (%)
  TEAE: Pain: 2 (25) N (%)
  TEAE: Platelet count decreased: 4 (50) N (%)
[3]
  TEAE: Abdominal pain: 1 (13) N (%)
  TEAE: Anemia: 0 N (%)
  TEAE: Constipation: 3 (38) N (%)
  TEAE: Decreased appetite: 1 (13) N (%)
  TEAE: Diarrhea: 3 (38) N (%)
  TEAE: Dyspepsia: 1 (13) N (%)
  TEAE: ECG QT prolonged: 1 (13) N (%)
  TEAE: Fatigue: 1 (13) N (%)
  TEAE: Headache: 3 (38) N (%)
  TEAE: Nausea: 4 (50) N (%)
  TEAE: Pain: 1 (13) N (%)
  TEAE: Platelet count decreased: 1 (13) N (%)
[4]
  TEAE: Abdominal pain: 1 (13) N (%)
  TEAE: Anemia: 2 (25) N (%)
  TEAE: Constipation: 3 (38) N (%)
  TEAE: Decreased appetite: 0 N (%)
  TEAE: Diarrhea: 0 N (%)
  TEAE: Dyspepsia: 1 (13) N (%)
  TEAE: ECG QT prolonged: 1 (13) N (%)
  TEAE: Fatigue: 2 (25) N (%)
  TEAE: Headache: 0 N (%)
  TEAE: Nausea: 2 (25) N (%)
  TEAE: Pain: 1 (13) N (%)
  TEAE: Platelet count decreased: 1 (13) N (%)
[5]
  TEAE: Abdominal pain: 0 N (%)
  TEAE: Anemia: 0 N (%)
  TEAE: Constipation: 0 N (%)
  TEAE: Decreased appetite: 1 (13) N (%)
  TEAE: Diarrhea: 0 N (%)
  TEAE: Dyspepsia: 0 N (%)
  TEAE: ECG QT prolonged: 0 N (%)
  TEAE: Fatigue: 1 (13) N (%)

Reference: paper PMC10778198, “First-in-Human Dose-Escalation Study of the Novel Oral Depsipeptide Class I-Targeting HDAC Inhibitor Bocodepsin (OKI-179) in Patients with Advanced Solid Tumors” (Cancers, 2023)
